Data as given in patent US6548041B1, “Dopamine transporter imaging agents” (Organix, Inc., priority 1999, dated 2003).

Legend:
[1] = target: dopamine transporter (DAT); experiment: Binding affinity for the dopamine transporter; settings: for DAT/SERT: selectivity ratio from the IC50 values for DAT and SERT
SERT = SERT (Homo sapiens, UniProt P31645); experiment: Binding affinity for SERT (selectivity test)
SERT, sequence (P31645 whole entry, species assumed): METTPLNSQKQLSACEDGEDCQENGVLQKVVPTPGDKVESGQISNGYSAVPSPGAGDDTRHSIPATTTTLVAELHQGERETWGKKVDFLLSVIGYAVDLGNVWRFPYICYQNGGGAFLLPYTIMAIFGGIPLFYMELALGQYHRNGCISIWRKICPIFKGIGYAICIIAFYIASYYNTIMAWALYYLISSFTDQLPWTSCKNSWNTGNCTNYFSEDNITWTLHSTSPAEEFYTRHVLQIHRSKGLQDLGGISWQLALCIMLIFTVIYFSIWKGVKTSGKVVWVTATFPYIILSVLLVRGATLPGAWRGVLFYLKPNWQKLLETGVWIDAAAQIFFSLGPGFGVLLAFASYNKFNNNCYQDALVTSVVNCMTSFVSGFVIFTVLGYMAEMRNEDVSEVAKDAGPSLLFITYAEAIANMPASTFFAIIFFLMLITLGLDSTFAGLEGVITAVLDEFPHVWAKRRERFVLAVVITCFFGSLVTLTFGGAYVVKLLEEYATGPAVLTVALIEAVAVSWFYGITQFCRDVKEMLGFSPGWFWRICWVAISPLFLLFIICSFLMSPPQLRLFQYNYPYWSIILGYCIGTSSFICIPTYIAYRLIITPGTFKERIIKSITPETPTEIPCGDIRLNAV

Question: Which results are given for `COC(=O)C1C(c2ccc(F)cc2)CC2CCC1N2CCC[N+]12CC[S][Re-]13(=[O])[S]CC[N]3C(=O)C2` (mixture of isomers) [Compound O-861]?
Answer: IC50 [1]: 2.9 nM; DAT/SERT [1]: 28; IC50 (SERT): 80 nM

Question: With `COC(=O)C1C(c2ccc(Cl)c(Cl)c2)CC2CCC1N2CCC[N+]12CC[S][Re-]13(=[O])[S]CC[N]3C(=O)C2` (mixture of isomers) [Compound O-863] as the compound, how does the IC50 [1] read?
Answer: The IC50 was 40 nM.

Question: Which results are given for `COC(=O)C1=C(c2ccc3ccccc3c2)CC2CCC1N2CCC[N+]12CC[S][Re-]13(=[O])[S]CC[N]3C(=O)C2` (mixture of isomers) [Compound O-1185, N-[(2-((3′-N′-Propyl-(1″R)-2″-methoxycarbonyl-3″-(2-naphthyl)-trop-2-ene)(2-mercaptoethyl)amino)acetyl)-2-aminoethane-thiolato]-rhenium (V) Oxide]?
Answer: IC50 [1]: 63 nM; DAT/SERT [1]: 15; IC50 (SERT): 960 nM

Question: `COC(=O)C1C(c2ccc3ccccc3c2)CC2CCC1N2CCC[N+]12CC[S][Re-]13(=[O])[S]CC[N]3C(=O)C2` (mixture of isomers) [Compound O-1339, N-[(2-((3′-N′-Propyl-(1″R)-2″β-methoxycarbonyl-3″β-(2-naphthyl)-tropane)(2-mercaptoethyl)amino)acetyl)-2-aminoethanethiolato]-rhenium (V) Oxide] was tested. Which IC50 [1] did it give?
Answer: Its IC50 is 3.6 nM.

Question: What about the DAT/SERT [1] of the same compound?
Answer: Its DAT/SERT is 16.

Question: And the IC50 (SERT)?
Answer: The IC50 was 59 nM.

Question: With `CCC(=O)C1C(c2ccc(F)cc2)CC2CCC1N2CCCN1CC[S][Re]2(=[O])[S]CC[N]2C(=O)C1` (mixture of isomers) [Compound O-1508, N-[(2-((3′-N′-Propyl-(1″R)-3″β-(4-fluorophenyl)tropane-2″β-1-propanoyl)(2-mercaptoethyl)amino)acetyl)-2-aminoethane-thiolato]rhenium (V) oxide] as the compound, how does the IC50 [1] read?
Answer: Its IC50 is 5.9 nM.

Question: What about the DAT/SERT [1] of the same compound?
Answer: Its DAT/SERT is 34.

Question: What about the IC50 (SERT) of the same compound?
Answer: The IC50 was 200 nM.

Question: `CCC(=O)C1C(c2ccc(Cl)c(Cl)c2)CC2CCC1N2CCCN1CC[S][Re]2(=[O])[S]CC[N]2C(=O)C1` (mixture of isomers) [Compound O-1561, N-[(2-((3′-N′-Propyl-(1″R)-3″α-(3,4-dichlorophenyl)tropane-2″β-1′″-propanoyl)(2-mercaptoethyl)amino)acetyl)-2-aminoethane-thiolato]rhenium (V) Oxide] was tested. Which IC50 [1] did it give?
Answer: Its IC50 is 5.3 nM.

Question: What about the DAT/SERT [1] of the same compound?
Answer: The DAT/SERT was 63.

Question: What about the IC50 (SERT) of the same compound?
Answer: Its IC50 is 337 nM.

Question: What does the source list for `COC(=O)C1C(c2ccc(F)cc2)CC2CCC1N2CCCN1CC[S][Re]2(=[O])[S]CC[N]2C(=O)C1` (single isomer, unassigned) [Compound O-927]?
Answer: IC50 [1]: 5 nM; DAT/SERT [1]: 40; IC50 (SERT): 200 nM

Question: Which results are given for `COC(=O)C1C(c2ccc(F)cc2)CC2CCC1N2CCCN1CC[S][Re]2(=[O])[S]CC[N]2C(=O)C1` (single isomer, unassigned) [Compound O-928]?
Answer: IC50 [1]: 3 nM; DAT/SERT [1]: 10; IC50 (SERT): 30 nM

Question: Which results are given for `COC(=O)C1=C(c2ccc(Cl)c(Cl)c2)CC2CCC1N2CCC[N+]12CC[S][Re-]13(=[O])[S]CC[N]3C(=O)C2` (stereo not shown) [Compound O-1136, N-[(2-((3′-N′-Propyl-(1″R)-3″-(3,4-dichlorophenyl)trop-2-ene-2″-methoxycarbonyl)(2-mercaptoethyl)amino)acetyl)-2-aminoethane-thiolato]rhenium (V) Oxide]?
Answer: IC50 [1]: 60 nM; DAT/SERT [1]: 28; IC50 (SERT): 1690 nM

Question: Which IC50 [1] does the source give for `COC(=O)C1C(c2ccc(F)cc2)CC2CCC1N2CCC[N+]12CC[S][Re-]13(=[O])[S]CC[N]3C(=O)C2` (stereo not shown) [Compound O-1186] here?
Answer: Its IC50 is 3.8 nM.

Question: And the DAT/SERT [1]?
Answer: The DAT/SERT was 340.

Question: What about the IC50 (SERT) of the same compound?
Answer: Its IC50 is 1300 nM.

Question: Which results are given for `COC(=O)C1C(c2ccc(Cl)c(Cl)c2)CC2CCC1N2CCC[N+]12CC[S][Re-]13(=[O])[S]CC[N]3C(=O)C2` (stereo not drawn) [Compound O-1196, N-[(2-((3′-N′-Propyl-(1″R)-3″α-(3,4-dichlorophenyl)-2″β-methoxy-carbonyltropane)(2-mercaptoethyl)amino)acetyl)-2-aminoethanethiolato]rhenium (V) Oxide]?
Answer: IC50 [1]: 10 nM; DAT/SERT [1]: 64; IC50 (SERT): 640 nM
